These results are taken from PubChem BioAssay (NCI).

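Tested at 5 concentrations; 48 h exposure; 96-well plates; endpoints linearly interpolated, else capped at highest concentration. GI50 = concentration required for 50% inhibition of growth. The concentration for full growth arrest is given as TGI.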

Test systems include SNB-75 CNS; MOLT-4 leukemia; T-47D breast; OVCAR-8 ovarian; SK-MEL-28 melanoma; NCI-H23 lung; HOP-92 NSCLC; 786-0 renal; UACC-257 melanoma; MDA-MB-231 breast.
What all share (experiment): NCI tumour cell line growth inhibition, 48 h

As to `CC(C)(C)C(=O)OCc1nc2cc3c(cc2c(=O)[nH]1)CCC3=O`, the GI50 in the experiment with SNB-75 CNS, in the experiment on MOLT-4 leukemia, with T-47D breast, in the experiment on OVCAR-8 ovarian, in the experiment with SK-MEL-28 melanoma and in the experiment with NCI-H23 lung was more than 100 µM throughout. The GI50 with HOP-92 NSCLC, with 786-0 renal, in the experiment with UACC-257 melanoma and with MDA-MB-231 breast was more than 100 µM in each case. Moreover, the TGI in the experiment with SNB-75 CNS, with MOLT-4 leukemia, in the experiment with T-47D breast, with OVCAR-8 ovarian, with SK-MEL-28 melanoma and in the experiment with NCI-H23 lung was more than 100 µM each time. The TGI with HOP-92 NSCLC, in the experiment with 786-0 renal, with UACC-257 melanoma and in the experiment on MDA-MB-231 breast was more than 100 µM throughout.

In the case of `COc1cc2c(cc1OC)-c1ncc3cc4c(cc3c1C2)OCO4`, the GI50 was 64.1 µM in the experiment on SNB-75 CNS; 4.14 µM in the experiment on MOLT-4 leukemia; 71.2 µM with T-47D breast; 47.3 µM with OVCAR-8 ovarian; more than 100 µM in the experiment on SK-MEL-28 melanoma; 20.3 µM with NCI-H23 lung. In addition, the GI50 was more than 100 µM with HOP-92 NSCLC, 18.3 µM with 786-0 renal, 48.4 µM in the experiment with UACC-257 melanoma and more than 100 µM in the experiment on MDA-MB-231 breast. The TGI in the experiment on SNB-75 CNS was more than 100 µM; in the experiment on MOLT-4 leukemia, 20.4 µM; in the experiment with T-47D breast it was more than 100 µM; with OVCAR-8 ovarian, more than 100 µM; in the experiment on SK-MEL-28 melanoma, more than 100 µM; in the experiment on NCI-H23 lung it was 41.7 µM. In addition, the TGI in the experiment on HOP-92 NSCLC is more than 100 µM; with 786-0 renal, 45.5 µM; in the experiment with UACC-257 melanoma it was more than 100 µM; in the experiment on MDA-MB-231 breast, more than 100 µM.

With `COc1ccc2c(c1)CC[C@@H]1[C@@H]2CC[C@]2(C)C=C(/C=C/C(=O)c3ccccc3)C[C@@H]12`, the GI50 in the experiment on SNB-75 CNS is 12.2 µM; in the experiment with MOLT-4 leukemia, 16.5 µM; in the experiment with T-47D breast, 12 µM; in the experiment on OVCAR-8 ovarian, 31.2 µM; in the experiment with SK-MEL-28 melanoma, 16.2 µM; in the experiment on NCI-H23 lung, 15.4 µM. The GI50 is 15.5 µM in the experiment on HOP-92 NSCLC, 15.5 µM with 786-0 renal, 16.2 µM in the experiment with UACC-257 melanoma and 17.2 µM in the experiment with MDA-MB-231 breast. Moreover, the TGI is 25.2 µM with SNB-75 CNS; 54.5 µM in the experiment with MOLT-4 leukemia; 30.1 µM in the experiment with T-47D breast; more than 100 µM in the experiment on OVCAR-8 ovarian; 31.7 µM with SK-MEL-28 melanoma; 30.8 µM with NCI-H23 lung. Further, the TGI in the experiment with HOP-92 NSCLC turned out to be 29.7 µM; in the experiment with 786-0 renal, 29.1 µM; in the experiment with UACC-257 melanoma it was 34.6 µM; in the experiment on MDA-MB-231 breast, 32.1 µM.

For `C#CCN(Cc1nc2cc(C(F)(F)F)ccc2nc1-c1ccccc1)c1ccc(F)c(F)c1`, the GI50 with SNB-75 CNS was more than 100 µM; in the experiment on MOLT-4 leukemia, 30.3 µM; in the experiment with T-47D breast it was 63.5 µM; in the experiment on OVCAR-8 ovarian, 31.6 µM; in the experiment on SK-MEL-28 melanoma, more than 100 µM; in the experiment with NCI-H23 lung it was 94.3 µM. The GI50 was 59.5 µM with HOP-92 NSCLC, more than 100 µM with 786-0 renal, 40.5 µM in the experiment on UACC-257 melanoma and 21.9 µM in the experiment with MDA-MB-231 breast. Also, the TGI in the experiment with SNB-75 CNS, with MOLT-4 leukemia, in the experiment on T-47D breast, in the experiment with OVCAR-8 ovarian, with SK-MEL-28 melanoma and in the experiment with NCI-H23 lung was more than 100 µM in each case. Moreover, the TGI in the experiment on HOP-92 NSCLC is more than 100 µM; in the experiment with 786-0 renal it was more than 100 µM; in the experiment with UACC-257 melanoma it was 64.9 µM; with MDA-MB-231 breast it was more than 100 µM.

With `CO[C@H](C(=O)O)[C@@H]1Cc2cc3cc(OC4CC(OC5CC(O)C(O)C(C)O5)C(O)C(C)O4)c(C)c(O)c3c(O)c2C(=O)[C@H]1OC1CC(OC2CC(OC3CC(C)(O)C(O)C(C)O3)C(O)C(C)O2)C(O)C(C)O1` (stereo partly drawn), the GI50 was 0.128 µM in the experiment on SNB-75 CNS; 0.272 µM in the experiment with MOLT-4 leukemia; 0.302 µM in the experiment with T-47D breast; 0.284 µM in the experiment with OVCAR-8 ovarian; 0.191 µM in the experiment on SK-MEL-28 melanoma; 0.211 µM in the experiment on NCI-H23 lung. The GI50 is 0.0736 µM in the experiment with HOP-92 NSCLC, 0.213 µM with 786-0 renal, 0.38 µM in the experiment with UACC-257 melanoma and 0.553 µM with MDA-MB-231 breast. Besides, the TGI with SNB-75 CNS was 0.741 µM; with MOLT-4 leukemia, 6.41 µM; with T-47D breast it was more than 32.5 µM; with OVCAR-8 ovarian, more than 32.5 µM; in the experiment on SK-MEL-28 melanoma it was 1.99 µM; in the experiment on NCI-H23 lung, 2.67 µM. Also, the TGI in the experiment with HOP-92 NSCLC was 22.6 µM; with 786-0 renal it was more than 32.5 µM; in the experiment with UACC-257 melanoma, more than 32.5 µM; in the experiment on MDA-MB-231 breast, more than 32.5 µM.

For the compound `O=c1c2c3c(sc2n2c(-c4ccc(Br)cc4)nnc2n1Cc1ccccc1)CCCC3`, the GI50 in the experiment on SNB-75 CNS was 7.99 µM; with MOLT-4 leukemia, 3.84 µM; in the experiment on T-47D breast, 4.42 µM; in the experiment with OVCAR-8 ovarian, 15.5 µM; in the experiment with SK-MEL-28 melanoma, 6.19 µM; with NCI-H23 lung, 12.4 µM. The GI50 was 3.41 µM in the experiment with HOP-92 NSCLC, 3.96 µM in the experiment with 786-0 renal and 3.39 µM in the experiment on MDA-MB-231 breast. Besides, the TGI with SNB-75 CNS is 22.1 µM; in the experiment with MOLT-4 leukemia it was 91.6 µM; in the experiment on T-47D breast, 16.8 µM; with OVCAR-8 ovarian, 37 µM; with SK-MEL-28 melanoma, 19.9 µM; with NCI-H23 lung, 31.3 µM. For the same compound, the TGI with HOP-92 NSCLC came to 16.1 µM; in the experiment on 786-0 renal it was 14.6 µM; with UACC-257 melanoma, 11.9 µM; in the experiment on MDA-MB-231 breast, 16.6 µM.

In the case of `O=C(NCCCCOCC#Cc1ccccc1C#CCS(=O)(=O)c1ccccc1)c1cc2ccccc2[nH]1`, the GI50 in the experiment on SNB-75 CNS was 12.5 µM; in the experiment with T-47D breast, 12.3 µM; in the experiment with OVCAR-8 ovarian it was 11.4 µM; in the experiment on SK-MEL-28 melanoma, 9.82 µM; with NCI-H23 lung it was 7.25 µM; in the experiment on HOP-92 NSCLC, 1.39 µM. In addition, the GI50 was 12.8 µM with 786-0 renal, 22.4 µM with UACC-257 melanoma and 9.59 µM with MDA-MB-231 breast. Moreover, the TGI was 27.3 µM in the experiment with SNB-75 CNS; more than 10.1 µM in the experiment on MOLT-4 leukemia; more than 37.5 µM with T-47D breast; 48.9 µM in the experiment with OVCAR-8 ovarian; 26.7 µM with SK-MEL-28 melanoma; 16 µM with NCI-H23 lung. Also, the TGI in the experiment on HOP-92 NSCLC is 15.7 µM; in the experiment with 786-0 renal, 34.8 µM; in the experiment with UACC-257 melanoma it was more than 50 µM; in the experiment on MDA-MB-231 breast, 27.4 µM.
